Here are results for one compound from paper PMC9149975, “The diaryl-imidazopyridazine anti-plasmodial compound, MMV652103, exhibits anti-breast cancer activity” (EXCLI Journal, 2022).

For one assay, the system named is T47D cells. In words: Clonogenic survival assay, T47D. It is filed as cell-based, human. The settings on record: IC50, 2 x IC50, 4 x IC50 for 24 h. As to the method:
Cells were pre-cultured and treated with the indicated concentrations of MMV652103 for 24 h, washed, collected and re-plated, in drug-free medium, at 1000-2000 cells per well in 35 mm dishes, in triplicate. After 10-21 days the surviving cells were fixed with 3:1 methanol: acetic acid and stained with 0.5 % crystal violet (Sigma-Aldrich, USA) in 100 % methanol. Quantification of colonies was performed using ImageJ 1.5J8 software (USA) (Schneider et al., 2012[73]). Number of colonies was determined for each drug concentration and expressed as a percentage of the vehicle treated control.

Another assay deals with T1, PIK3CD/ PIK3R1 (Homo sapiens, UniProt O00329).
T1 construct: purchased Carna Biosciences Inc; Invitrogen Corporation
T1 sequence (O00329 whole entry): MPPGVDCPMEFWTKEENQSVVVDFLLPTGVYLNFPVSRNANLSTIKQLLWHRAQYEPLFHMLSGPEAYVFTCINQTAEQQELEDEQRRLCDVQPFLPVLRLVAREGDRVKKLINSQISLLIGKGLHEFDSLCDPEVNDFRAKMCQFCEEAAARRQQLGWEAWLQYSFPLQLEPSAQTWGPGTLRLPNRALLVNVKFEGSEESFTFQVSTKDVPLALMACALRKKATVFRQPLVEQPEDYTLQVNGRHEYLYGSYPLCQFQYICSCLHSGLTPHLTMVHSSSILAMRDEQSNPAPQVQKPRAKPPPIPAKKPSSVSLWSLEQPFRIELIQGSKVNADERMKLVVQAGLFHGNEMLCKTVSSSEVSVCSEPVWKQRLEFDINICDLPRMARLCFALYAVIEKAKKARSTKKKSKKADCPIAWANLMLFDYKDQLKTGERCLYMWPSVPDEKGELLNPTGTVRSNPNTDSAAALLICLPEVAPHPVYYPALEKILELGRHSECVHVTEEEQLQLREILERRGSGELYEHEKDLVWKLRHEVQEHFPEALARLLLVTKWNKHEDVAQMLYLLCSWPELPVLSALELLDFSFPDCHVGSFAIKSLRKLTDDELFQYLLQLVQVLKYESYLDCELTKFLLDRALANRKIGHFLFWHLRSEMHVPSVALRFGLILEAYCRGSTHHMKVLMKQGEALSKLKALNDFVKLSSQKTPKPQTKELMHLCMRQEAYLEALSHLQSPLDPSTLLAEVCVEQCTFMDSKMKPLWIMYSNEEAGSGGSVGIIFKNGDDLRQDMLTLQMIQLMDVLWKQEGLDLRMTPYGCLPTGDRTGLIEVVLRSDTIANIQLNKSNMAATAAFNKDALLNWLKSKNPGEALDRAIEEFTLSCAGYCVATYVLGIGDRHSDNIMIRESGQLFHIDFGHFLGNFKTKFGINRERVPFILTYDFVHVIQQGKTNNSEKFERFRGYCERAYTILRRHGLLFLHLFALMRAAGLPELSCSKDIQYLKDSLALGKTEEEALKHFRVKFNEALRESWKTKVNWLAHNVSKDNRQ
T1 sequence (P27986 whole entry partner): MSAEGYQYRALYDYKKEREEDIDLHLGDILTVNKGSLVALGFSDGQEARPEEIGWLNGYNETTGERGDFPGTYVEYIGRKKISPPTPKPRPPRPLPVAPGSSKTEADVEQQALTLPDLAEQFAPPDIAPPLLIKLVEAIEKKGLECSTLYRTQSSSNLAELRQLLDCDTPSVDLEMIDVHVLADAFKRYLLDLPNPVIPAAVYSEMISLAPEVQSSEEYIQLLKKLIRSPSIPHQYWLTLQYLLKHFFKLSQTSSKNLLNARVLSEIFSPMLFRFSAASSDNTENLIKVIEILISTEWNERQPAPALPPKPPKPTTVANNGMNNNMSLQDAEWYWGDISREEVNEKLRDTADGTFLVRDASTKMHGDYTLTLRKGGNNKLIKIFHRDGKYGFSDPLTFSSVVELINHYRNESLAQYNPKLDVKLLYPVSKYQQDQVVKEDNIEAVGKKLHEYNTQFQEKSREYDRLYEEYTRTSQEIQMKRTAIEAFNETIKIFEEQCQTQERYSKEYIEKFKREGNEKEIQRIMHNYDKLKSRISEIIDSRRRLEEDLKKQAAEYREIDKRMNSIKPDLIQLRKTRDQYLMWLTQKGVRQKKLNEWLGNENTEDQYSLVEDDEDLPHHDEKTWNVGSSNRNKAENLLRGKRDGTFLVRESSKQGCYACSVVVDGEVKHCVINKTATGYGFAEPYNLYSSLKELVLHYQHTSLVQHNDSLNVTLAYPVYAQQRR
In words: ADP-Glo lipid kinase assay, PIK3CD/PIK3R1. It is filed as biochemical. The settings on record: 10 µM compound. For orientation: ADP-Glo turns the ADP formed in a reaction into a luminescent signal.

The test system of the next assay is MCF7 cells. In words: ROS-Glo H2O2 assay. The settings on record: MCF7, 24 h, ½ IC50 and IC50. It is filed as cell-based, human. As to the method:
To determine whether MMV652103 induced oxidative stress in breast cancer cells, the levels of H2O2 were measured using the ROS-Glo™ H2O2 assay kit (G8820, Promega, Wisconsin, USA), according to the manufacturer's instructions. Briefly, cells (2500-4500 cells per well) were seeded in opaque 96 well plates. Cells were treated for 24 h with either vehicle or MMV652103 in a volume of 80 μl per well. After 18 h of incubation, 20 μl H2O2 Substrate Solution was added to each well. After 24 h of incubation 100 μl ROS-Glo™ Detection Solution (prepared by mixing 10 ml Luciferin Detection Reagent, 100 μl D-Cysteine and 100 μl Signal Enhancer Solution) was added to each well and incubated at RT for 20 min. After incubation, the luminescence was read using the GloMax® Explorer Multimode plate reader (Promega, Wisconsin, USA).

In assay [1] the test system is T47D (ER+) breast cancer cells. Put plainly: MTT cytotoxicity assay, T47D. The settings on record: for IC50: Homo sapiens, T47D. It is filed as cell-based, human. An excerpt:
Human estrogen-receptor positive (ER+) breast adenocarcinoma cell lines, MCF7 and T47D, were maintained in Roswell Park Memorial Institute-1640 medium (Sigma Aldrich, Missouri, USA) and the human epidermal growth factor receptor 2 positive (HER2+) BT474, and triple negative (TNBC) MDA-MB-231 and MDA-MB-468 cells were maintained in Dulbecco's Modified Eagle's Medium (DMEM) (Sigma Aldrich, Missouri, USA). FG0 human skin fibroblasts (provided by Associate Professor Denver Hendricks, University of Cape Town) were maintained in DMEM while the normal breast epithelial cell line MCF12A was maintained in DMEM:nutrient mixture F-12 (DMEM/F12; 1:1; Sigma Aldrich, Missouri, USA), supplemented with 20 ng/ml epidermal growth factor, 100 ng/ml cholera toxin, 500 ng/ml hydrocortisone and 10 µg/ml insulin. All media were supplemented with 10 % fetal bovine serum, 100 U/ml penicillin and 100 µg/ml streptomycin. Cells were maintained at 37 °C in a 5 % CO2 and 95 % air-humidified incubator. Media was replaced every 2-3 days and cells were routinely tested for mycoplasma infection.
(§1) Cells (3.5×10^3-6×10^3 / well) were seeded in 96-well plates and treated at a 60-70 % confluence with a range of concentrations (0-10 μM) of test compounds or vehicle for 48 h. Cell viability was measured using the 3-(4,5-dimethylthiazol-2-yl)-2,5-diphenyl-trazolium bromide (MTT) assay (11465007001; Sigma Aldrich) according to the manufacturer's instructions. Mean cell viability was calculated as a percentage of the mean vehicle control. A minimum of three independent experiments in quadruplicate were performed from which the IC50 was determined from sigmoidal plots using GraphPad Prism version 6.0 (GraphPad Software, California, USA). The selectivity index (SI) was determined by dividing the IC50 of a non-malignant cell line by the IC50 of a cancer cell line.
Background: Tetrazolium assays rely on reduction of a dye to a coloured formazan, in cell work by metabolically active cells.

A further assay addresses T2, PIK3CG (Homo sapiens, UniProt P48736).
T2 construct: purchased Carna Biosciences Inc; Invitrogen Corporation
In words: ADP-Glo lipid kinase assay, PIK3CG. The settings on record: 10 µM compound. It is filed as biochemical.

The target of a further assay is T3, PIK3C2A (Homo sapiens, UniProt O00443).
T3 construct: purchased Carna Biosciences Inc; Invitrogen Corporation
Put plainly: ADP-Glo lipid kinase assay, PIK3C2A. It is filed as biochemical. The settings on record: 10 µM compound.

A further assay addresses T4, PI4KB (Homo sapiens, UniProt Q9UBF8).
T4 construct: purchased Carna Biosciences Inc; Invitrogen Corporation
Put plainly: ADP-Glo lipid kinase assay, PI4KB. It is filed as biochemical. As to the method: A non-radiometric kinase assay (ADP-Glo™ Assay, Promega, Madison, Wi, USA) was used for measuring the kinase activity of the 2 lipid kinases, phosphatidylinositol 4-kinase beta (encoded by the PI4KB gene) and phosphatidylinositol-4-Phosphate 3-Kinase Catalytic Subunit Type 2 Gamma (encoded by the PIK3C2G gene). All kinase assays were performed in 96-well half-area microtiter plates from Greiner Bio-One (Frickenhausen, Germany) in 25 µl reaction volumes. […] In addition, the assay for PI4KB contained 3 mM MnCl2 and the assay for PIK3C2G contained 3 mM MgCl2. Kinases from external vendors (Carna Biosciences Inc.; Invitrogen Corporation; Millipore Corporation) were expressed, purified and quality-controlled by virtue of the vendors readings. The reaction cocktails were incubated at 30 °C for 60 min. The reaction was stopped with 25 µl ADP-Glo reagent per well. Plates were incubated for 40 min at RT, followed by the addition of 50 µl kinase detection reagent per well and incubation for 60 min at RT. Signal was determined with a microplate luminescence reader (Victor, Perkin Elmer). […]
For each kinase, the median value of the counts per second (cps) of three wells with complete reaction cocktails, but without kinase, was defined as "low control" (n=3). […] The residual activity (in %) for each well of each row of a particular plate was calculated by using the following formula: […]

For assay [2], the system named is BT474 (HER2+) breast cancer cells. Put plainly: MTT cytotoxicity assay, BT474. It is filed as cell-based. The settings on record: Homo sapiens, BT-474. As to the method: Human estrogen-receptor positive (ER+) breast adenocarcinoma cell lines, MCF7 and T47D, were maintained in Roswell Park Memorial Institute-1640 medium (Sigma Aldrich, Missouri, USA) and the human epidermal growth factor receptor 2 positive (HER2+) BT474, and triple negative (TNBC) MDA-MB-231 and MDA-MB-468 cells were maintained in Dulbecco's Modified Eagle's Medium (DMEM) (Sigma Aldrich, Missouri, USA). […]
as §1

Molecules are shown by their SMILES. Where two headings read alike, the source gives them in different places.

T4 sequence (Q9UBF8 whole entry): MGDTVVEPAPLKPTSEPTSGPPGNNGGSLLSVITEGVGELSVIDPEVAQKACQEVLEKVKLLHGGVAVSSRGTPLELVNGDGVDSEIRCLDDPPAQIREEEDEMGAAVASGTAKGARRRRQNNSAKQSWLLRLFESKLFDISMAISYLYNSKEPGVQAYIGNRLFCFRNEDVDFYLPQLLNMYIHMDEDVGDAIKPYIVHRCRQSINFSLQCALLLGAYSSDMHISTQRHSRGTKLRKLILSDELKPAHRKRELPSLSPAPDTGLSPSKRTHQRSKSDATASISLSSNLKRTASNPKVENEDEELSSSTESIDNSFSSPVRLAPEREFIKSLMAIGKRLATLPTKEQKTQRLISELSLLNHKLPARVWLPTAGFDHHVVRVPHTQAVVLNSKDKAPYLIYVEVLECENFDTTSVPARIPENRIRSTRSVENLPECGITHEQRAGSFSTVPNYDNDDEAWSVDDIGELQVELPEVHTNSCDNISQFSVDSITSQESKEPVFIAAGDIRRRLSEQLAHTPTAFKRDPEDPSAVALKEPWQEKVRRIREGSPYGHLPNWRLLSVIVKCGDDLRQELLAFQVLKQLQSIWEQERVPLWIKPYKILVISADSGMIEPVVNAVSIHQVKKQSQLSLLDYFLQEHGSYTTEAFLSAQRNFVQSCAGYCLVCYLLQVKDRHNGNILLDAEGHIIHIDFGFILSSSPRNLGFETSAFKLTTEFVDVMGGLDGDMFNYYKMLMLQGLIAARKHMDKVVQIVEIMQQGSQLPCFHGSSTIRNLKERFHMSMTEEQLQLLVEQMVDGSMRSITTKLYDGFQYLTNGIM
T2 sequence (P48736 whole entry): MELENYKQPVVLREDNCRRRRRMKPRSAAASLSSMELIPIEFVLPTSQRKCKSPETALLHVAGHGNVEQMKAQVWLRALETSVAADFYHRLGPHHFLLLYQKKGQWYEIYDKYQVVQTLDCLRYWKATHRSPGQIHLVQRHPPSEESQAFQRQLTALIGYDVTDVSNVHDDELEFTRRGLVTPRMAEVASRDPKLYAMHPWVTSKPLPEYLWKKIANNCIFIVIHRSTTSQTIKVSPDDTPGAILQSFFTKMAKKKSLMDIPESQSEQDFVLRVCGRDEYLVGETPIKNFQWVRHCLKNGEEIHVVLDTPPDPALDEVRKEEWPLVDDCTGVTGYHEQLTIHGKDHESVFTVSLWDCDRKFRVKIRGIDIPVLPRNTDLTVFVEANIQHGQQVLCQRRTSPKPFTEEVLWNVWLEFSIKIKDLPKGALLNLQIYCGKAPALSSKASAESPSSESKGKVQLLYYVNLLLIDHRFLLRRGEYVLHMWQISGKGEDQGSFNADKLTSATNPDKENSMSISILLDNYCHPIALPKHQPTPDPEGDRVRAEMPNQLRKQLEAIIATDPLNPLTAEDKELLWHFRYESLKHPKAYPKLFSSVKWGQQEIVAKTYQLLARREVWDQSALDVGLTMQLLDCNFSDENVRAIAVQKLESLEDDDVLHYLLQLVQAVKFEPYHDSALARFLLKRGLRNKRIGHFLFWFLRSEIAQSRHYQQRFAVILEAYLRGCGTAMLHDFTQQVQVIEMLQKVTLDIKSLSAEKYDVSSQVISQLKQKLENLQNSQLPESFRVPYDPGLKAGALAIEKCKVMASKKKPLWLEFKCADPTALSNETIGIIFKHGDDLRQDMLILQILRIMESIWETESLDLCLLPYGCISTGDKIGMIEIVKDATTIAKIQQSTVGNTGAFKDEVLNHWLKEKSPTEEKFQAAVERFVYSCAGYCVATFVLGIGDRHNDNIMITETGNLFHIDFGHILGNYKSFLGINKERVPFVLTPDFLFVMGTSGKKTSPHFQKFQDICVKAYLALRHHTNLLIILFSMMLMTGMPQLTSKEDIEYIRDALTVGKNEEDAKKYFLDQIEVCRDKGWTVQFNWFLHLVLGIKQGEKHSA

One may read the remaining activity as what remains of the control signal, in per cent. A high value points to much activity left. Usually IC50 stands for the concentration that gives 50% inhibition. Turning to `CS(=O)(=O)c1ccc(-c2cnc3ccc(-c4cccc(S(C)(=O)=O)c4)nn23)cc1` [MMV652103], the “number of T47D cell colonies” value with T47D cells is given as “dose-dependent reduction”. The remaining activity at 10 µM was 3% on PIK3CD/ PIK3R1, 2% on PIK3CG, 39% at PIK3C2A and 23% on PI4KB (10 µM compound). In the assay on MCF7 cells, the “levels of H2O2” value is “significant increase”. The IC50 in assay [1] (Fig 2C summary, MTT 48 h, read-out: IC50 ± SEM T47D) was 2900 ± 1100 nM; in assay [1] (MTT, 48 h, read-out: IC50 T47D) it was 2900 nM; against PI4KB (ADP-Glo), 1700 nM; in assay [2] (Fig 2C summary, MTT 48 h, read-out: IC50 ± SEM BT474) it was 7300 ± 1050 nM; in assay [2] (MTT, 48 h, read-out: IC50 BT474), 7300 nM. Besides, the “SI FG0 (T47D)” value in assay [1] (IC50 FG0 / IC50 T47D) is reported as greater than 2.
